Measurements from patent US20100267822A1, “AURONES AS ESTROGEN RECEPTOR MODULATORS AND THEIR USE IN SEX HORMONE DEPENDENT DISEASES” (priority 2009, published 2010).

What was measured:
[1] = target: T1, Recombinant human ERbeta protein (Homo sapiens, UniProt Q92731); assay: [3H] estradiol binding to recombinant human ERbeta (radioligand displacement, MDS cat No. 226050); details: test compound 10 μM; 0.5 nM [3H] estradiol; 2 hours at 25° C.; in comparison to the vehicle control (1% DMSO)
T1 construct: purchased MDS Pharma Services 226050; host or cells: insect Sf9 cells
Procedure: (§1) Recombinant human ERbeta protein isolated from insect Sf9 cells (MDS Pharma Services: cat No. 226050) was incubated with the test substance (dissolved in 1% DMSO) and 0.5 nM [^3H] estradiol for 2 hours at 25° C. in an incubation buffer (10 mM TrisHCl pH 7.4, 0.1% BSA, 10% Glycerol, 1 mM DTT). At the end of the incubation period, receptor-bound [^3H] estradiol was quantified. Stimulating or inhibiting effects equal or larger than 50% in comparison to vehicle control (1% DMSO) were considered to be significant. The final concentration of the test compound was 10 μM.
(§2) The assays described in Examples 4 and 5 were conducted by MDS (catalogue number 226010 for ERalpha and 226050 for ERbeta, respectively) following procedures established in literature (Obourn et al., Biochemistry 1993, 32: 6229-6236).

[2] = target: T2, Recombinant human ERalpha protein (Homo sapiens, UniProt P03372); assay: [3H] estradiol binding to recombinant human ERalpha (radioligand displacement, MDS cat No. 226010); details: test compound 10 μM; 0.5 nM [3H] estradiol; 2 hours at 25° C.; in comparison to the vehicle control (1% DMSO)
T2 construct: purchased MDS Pharma Services 226010; host or cells: insect Sf9 cells (printed as '519')
T2 sequence (P03372 1-595): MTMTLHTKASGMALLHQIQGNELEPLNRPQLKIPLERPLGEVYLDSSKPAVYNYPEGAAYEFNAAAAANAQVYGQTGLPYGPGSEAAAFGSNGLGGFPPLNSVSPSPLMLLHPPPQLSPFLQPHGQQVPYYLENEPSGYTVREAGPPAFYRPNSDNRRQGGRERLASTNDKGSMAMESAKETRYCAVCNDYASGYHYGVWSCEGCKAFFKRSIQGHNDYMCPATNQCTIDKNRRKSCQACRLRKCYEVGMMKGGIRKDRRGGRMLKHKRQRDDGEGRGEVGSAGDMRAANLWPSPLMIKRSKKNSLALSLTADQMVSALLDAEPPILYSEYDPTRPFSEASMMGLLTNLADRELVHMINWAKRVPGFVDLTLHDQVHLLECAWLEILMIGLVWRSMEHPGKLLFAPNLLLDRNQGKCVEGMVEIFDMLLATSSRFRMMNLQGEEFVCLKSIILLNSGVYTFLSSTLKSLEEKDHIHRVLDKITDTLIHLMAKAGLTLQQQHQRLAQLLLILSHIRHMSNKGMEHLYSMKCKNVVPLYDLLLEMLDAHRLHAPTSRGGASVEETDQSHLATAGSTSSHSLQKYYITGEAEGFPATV
Procedure: as §1, with “ERalpha” for “ERbeta”, “[…]” for “Sf9”, “226010)” for “226050)”
as §2

T1 sequence (Q92731 whole entry): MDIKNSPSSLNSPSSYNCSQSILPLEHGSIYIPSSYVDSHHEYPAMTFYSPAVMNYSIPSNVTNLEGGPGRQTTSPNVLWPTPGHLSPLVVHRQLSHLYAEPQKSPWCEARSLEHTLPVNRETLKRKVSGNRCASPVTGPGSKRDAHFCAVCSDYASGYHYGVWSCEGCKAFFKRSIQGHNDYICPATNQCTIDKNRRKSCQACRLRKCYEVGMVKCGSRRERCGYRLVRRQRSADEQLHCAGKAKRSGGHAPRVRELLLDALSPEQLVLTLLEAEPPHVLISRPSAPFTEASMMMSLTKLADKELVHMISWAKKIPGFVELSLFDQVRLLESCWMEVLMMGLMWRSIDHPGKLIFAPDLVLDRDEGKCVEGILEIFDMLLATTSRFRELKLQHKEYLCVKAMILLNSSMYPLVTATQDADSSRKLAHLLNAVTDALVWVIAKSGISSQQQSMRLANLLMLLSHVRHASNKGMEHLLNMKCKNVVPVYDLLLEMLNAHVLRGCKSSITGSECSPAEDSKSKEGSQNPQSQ

Row | SMILES | inhibition at 10 µM [1] [%] | inhibition at 10 µM [2] [%]
1 | O=C1/C(=C/c2ccc(O)cc2)Oc2cc(O)cc(O)c21 [SM30 (3), 4,4′,6-Trihydroxyaurone] | 91 | 18
2 | O=C1/C(=C/c2ccc(O)cc2O)Oc2cc(O)cc(O)c21 [SM29 (3), 2′,4,4′,6-Tetrahydroxyaurone] | 13 | 2
